Measured values reported in US3976545A, “1,2,4-Triazol E-3-carboxamides as antiviral agents” (ICN Pharmaceuticals, Inc., priority 1975, dated 1976).
Where two headings read alike, the source gives them in different places.

Tests used:
in vitro = details: human, kb cells
influenza A2 virus = type: in vivo, Female Swiss Mice; details: for Average Lung Consolidation: Day 25, scale of 0-4; for effectiveness against influenza virus: summary in words
mice = details: for MST / Survivors Per Total / Average Lung Consolidation / HA Titer Per ml: Drug + MEM; for Average Lung Consolidation: Day 25, scale of 0-4; for HA Titer Per ml: lung homogenates Day 25
Type 1A Rhino = assay: CPE inhibition in KB cells, Type 1A Rhino; type: cell-based; details: VR >0.5 significant, <0.5 slight activity
Method: (§1) They were tested for activity using the virus-induced cytopathogenic effect (CPE) method of Sidwell, et al., (Applied Microbiology 22:797-801, 1971). Briefly, the CPE procedure includes the dissolution of the antiviral agent in a cell culture medium consisting of vitamins, amino acids, serum, buffer, penicillin, streptomycin and indicator dye in water. The virus suspended in the cell culture medium was added to an established monolayer of KB cells, and an equal volume of the antiviral agent was then added within 15 minutes. The infected treated cells were graded following microscopic examination. Controls for each experiment include cell controls (cells and cell culture medium only), virus controls (cells and virus and cell culture medium) and toxicity controls (cells and chemical and cell culture medium).
(§2) The virus rating (VR) system of Sidwell et al, described in Applied Microbiology, supra, was used to evaluate the degree of significance of CPE inhibition.

Vaccinia = type: cell-based; details: KB cells, VR >0.5 significant, <0.5 slight activity
Measles = Measles virus plaque inhibition (agar overlay); type: cell-based; details: Measles morbillivirus, 96 h, day 4; for inhibition at 20 µg/mL: 20 μg/ml; for inhibition at 100 µg/mL: 100 μg/ml; for inhibition at 500 µg/mL: 500 μg/ml
From the text: In experiments with measles virus, the above method was altered in that the infected cells were covered with an agar-serum-bicarbonate overlay containing the antiviral compounds so that viral plaques could be discerned. These plaques were strained with neutral red dye on day 4 and counted, with any reduction in plaque number resulting from exposure to the antiviral compound determined. The methodology for the experiment is as described by Wear et al (Exptl. and Molecular Pathol. 9:405-417, 1968).

Type 56 Rhino = assay: CPE inhibition in KB cells, Type 56 Rhino; type: cell-based; details: VR >0.5 significant, <0.5 slight activity
Method: as §1, §2

Type 3 Parainfluenza = assay: CPE inhibition in KB cells, Type 3 Parainfluenza; type: cell-based; details: VR >0.5 significant, <0.5 slight activity
Method: as §1, §2

Type 2 Herpes = assay: CPE inhibition in KB cells, Type 2 Herpes; type: cell-based; details: VR >0.5 significant, <0.5 slight activity
Method: as §1, §2

Type 13 Rhino = assay: CPE inhibition in KB cells, Type 13 Rhino; type: cell-based; details: VR >0.5 significant, <0.5 slight activity
Method: as §1, §2

Type 8 Rhino = assay: CPE inhibition in KB cells, Type 8 Rhino; type: cell-based; details: VR >0.5 significant, <0.5 slight activity
Method: as §1, §2

Type 1 Herpes = assay: CPE inhibition in KB cells, Type 1 Herpes; type: cell-based; details: VR >0.5 significant, <0.5 slight activity
Method: as §1, §2

Nucleoside Phosphorylase = target: T1, Nucleoside Phosphorylase (Bos taurus, UniProt P55859); assay: Nucleoside Phosphorylase assay (conversion of 1,2,4-triazole-3-carboxamide to its 1-β-D-ribofuranosyl nucleoside); type: biochemical, calf (spleen); details: pH 7.4, 25°, 5 minutes
T1 construct: purchased Sigma Chemical Co., St. Louis, Mo; host or cells: calf spleen
T1 sequence (P55859 1-289): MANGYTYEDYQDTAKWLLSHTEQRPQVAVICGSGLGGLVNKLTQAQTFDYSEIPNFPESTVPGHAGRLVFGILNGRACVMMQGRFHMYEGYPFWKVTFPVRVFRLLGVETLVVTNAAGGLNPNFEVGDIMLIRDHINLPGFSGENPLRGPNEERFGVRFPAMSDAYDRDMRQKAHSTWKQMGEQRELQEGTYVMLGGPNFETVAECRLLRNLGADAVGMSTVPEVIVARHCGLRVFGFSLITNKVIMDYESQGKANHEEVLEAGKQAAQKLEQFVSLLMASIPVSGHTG
Method: 1,2,4-Triazole-3-carboxamide may be converted to 1-β-D-ribofuranosyl- 1,2,4-triazole-3-carboxamide by reaction with the enzyme Nucleoside Phosphorylase at a pH within the range of about 5 to about 9, preferably 7 to 8, at an enzyme concentration of from about 0.015 to about 0.75 mg/ml, preferably about 0.15 mg/ml, and a temperature within the range of about 0° to about 50°C, with the preferred temperature being approximately 25° to about 35°C. Satisfactory results have been obtained when the triazole base is present in a concentration greater than 5×10^^-5 M and ribose-1-phosphate is present at a concentration greater than 2×10^^-5 M. Generally about 0.1 to about 2 hours, preferably about 0.5 to about 1 hour, are required for the reaction. The source of the enzyme may be animal, tissue, or bacteria. The principal bacterial sources are E. coli and […], while a variety of animal sources exist, including beef spleen, rat liver, calf liver, calf thymus, beef liver, monkey brain, horse liver, calf spleen, human erythrocytes, fish skin, and fish muscle. […]
The samples were incubated at 25° for 5 minutes and then frozen in dry ice - isopropanol to stop the reaction. […] Areas of the chromatograms coinciding with 1,2,4-triazole-3-carboxamide were removed and counted to determine the percent of conversion of 1,2,4 -triazole-3-carboxamide to 1-β-D-ribofuranosyl-1,2,4-triazole-3-carboxamide.

[1] = Compound 2, 75 mg/kg/day ip, Drug + Virus, schedule 1
[2] = Compound 2, 250 mg/kg/day ip, Drug + Virus, schedule 3
[3] = Compound 2, 500 mg/kg/day ip, Drug + Virus, schedule 3
[4] = Compound 2, 1000 mg/kg/day ip, Drug + Virus, schedule 2
[5] = Compound 2, 250 mg/kg/day ip, schedule 3
[6] = Compound 2, 500 mg/kg/day ip, schedule 3
[7] = Compound 2, 1000 mg/kg/day ip, schedule 2
[8] = Compound 1, 250 mg/kg/day ip, Drug + Virus, schedule 1
[9] = Compound 1, 500 mg/kg/day ip, Drug + Virus, schedule 1
[10] = Compound 1, 1000 mg/kg/day ip, Drug + Virus, schedule 1
[11] = Compound 1, 250 mg/kg/day ip, schedule 1
[12] = Compound 1, 500 mg/kg/day ip, schedule 1
[13] = Compound 1, 1000 mg/kg/day ip, schedule 1

## NC(=S)c1nc[nH]n1 [Compound 2, 1,2,4-Triazole-3-thiocarboxamide]
In vitro
  MCC: ≥ 1 µg/mL
Influenza A2 virus; [1]
  MST: > 21.0 days
  Average Lung Consolidation: 1.0
Influenza A2 virus; Compound 2, 75 mg/kg/day ip, Drug + Virus, schedule 1 (P<0.001)
  Survivors Per Total: 10/10
Influenza A2 virus; [2]
  MST: 9.2 days
  Average Lung Consolidation: 3.6
Influenza A2 virus; Compound 2, 250 mg/kg/day ip, Drug + Virus, schedule 3 (P<0.2)
  Survivors Per Total: 6/10
Influenza A2 virus; [3]
  MST: 7.6 days
  Average Lung Consolidation: 2.2
Influenza A2 virus; Compound 2, 500 mg/kg/day ip, Drug + Virus, schedule 3 (P>0.3)
  Survivors Per Total: 5/10
Influenza A2 virus; [4]
  MST: 8.3 days
  Average Lung Consolidation: 3.7
Influenza A2 virus; Compound 2, 1000 mg/kg/day ip, Drug + Virus, schedule 2 (P>0.3)
  Survivors Per Total: 3/10
Influenza A2 virus
  effectiveness against influenza virus: particularly effective against influenza virus
mice; [5]
  MST: > 21.0 days
  Survivors Per Total: 5/5
  Average Lung Consolidation: 0.5
  HA Titer Per ml: 0
mice; [6]
  MST: 9.0 days
  Survivors Per Total: 4/5
  Average Lung Consolidation: 2.0
  HA Titer Per ml: 0
mice; [7]
  MST: 4.2 days
  Survivors Per Total: 0/5
mice; concentrations as low as 250 mg/kg/day, intraperitoneally, same treatment regimen (twice daily for 9 days)
  toxicity to mice: moderately toxic as evidenced by weight loss and death
Type 1A Rhino
  Virus Rating: 0.2-0.4
Vaccinia
  Virus Rating: 0.5
Measles
  inhibition at 20 µg/mL: 5%
  inhibition at 100 µg/mL: 98%
  inhibition at 500 µg/mL: 100%
Type 56 Rhino
  Virus Rating: 0.4
Type 3 Parainfluenza
  Virus Rating: 0.2-0.4
Type 2 Herpes
  Virus Rating: 0.3
Type 13 Rhino
  Virus Rating: 0.4
Type 8 Rhino
  Virus Rating: 0.3
Type 1 Herpes
  Virus Rating: 0.4-0.8

## NC(=O)c1ncn([C@@H]2O[C@H](CO)[C@@H](O)[C@H]2O)n1 [Compound 3, 1-β-D-Ribofuranosyl-1,2,4-triazole-3-carboxamide]
Type 1A Rhino
  Virus Rating: 0.6
Vaccinia
  Virus Rating: 0.9-1.0
Measles
  inhibition at 20 µg/mL: 30%
  inhibition at 100 µg/mL: 94%
  inhibition at 500 µg/mL: 100%
Type 56 Rhino
  Virus Rating: 0.9
Type 3 Parainfluenza
  Virus Rating: 0.6-1.0
Type 2 Herpes
  Virus Rating: 1.3
Type 13 Rhino
  Virus Rating: 0.5
Type 8 Rhino
  Virus Rating: 0.8
Type 1 Herpes
  Virus Rating: 1.0-1.5

## NC(=O)c1nc[nH]n1 [Compound 1, 1,2,4-Triazole-3-carboxamide]
In vitro
  MCC: 32 to 1000 µg/mL
Influenza A2 virus; [8]
  MST: 17.5 days
  Average Lung Consolidation: 1.4
Influenza A2 virus; Compound 1, 250 mg/kg/day ip, Drug + Virus, schedule 1 (P<0.05)
  Survivors Per Total: 8/10
Influenza A2 virus; [9]
  MST: 12.0 days
  Average Lung Consolidation: 2.5
Influenza A2 virus; Compound 1, 500 mg/kg/day ip, Drug + Virus, schedule 1 (P<0.1)
  Survivors Per Total: 7/10
Influenza A2 virus; [10]
  MST: 15 days
  Average Lung Consolidation: 2.0
Influenza A2 virus; Compound 1, 1000 mg/kg/day ip, Drug + Virus, schedule 1 (P<0.05)
  Survivors Per Total: 8/10
Influenza A2 virus; Compound 1, 1000 mg/kg/day ip, Drug + Virus, schedule 1, lung homogenates Day 25
  HA Titer Per ml: 1.3
Influenza A2 virus
  effectiveness against influenza virus: particularly effective against influenza virus
mice; [11]
  MST: > 21.0 days
  Survivors Per Total: 5/5
mice; [12]
  MST: > 21.0 days
  Survivors Per Total: 5/5
mice; [13]
  MST: > 21 days
  Survivors Per Total: 5/5
mice; concentrations as high as 1000 mg/kg/day, intraperitoneally twice daily for 9 days
  toxicity to mice: nontoxic
Type 1A Rhino
  Virus Rating: 0.4-0.5
Vaccinia
  Virus Rating: 0.8
Measles
  inhibition at 20 µg/mL: 34%
  inhibition at 100 µg/mL: 97%
  inhibition at 500 µg/mL: 99%
Type 56 Rhino
  Virus Rating: 0.3
Type 3 Parainfluenza
  Virus Rating: 0.5-0.7
Type 2 Herpes
  Virus Rating: 0.4
Type 13 Rhino
  Virus Rating: 0.3
Nucleoside Phosphorylase; - enzyme
  % Conversion: 0.8%
Nucleoside Phosphorylase; - ribose-1-P, + enzyme, 80μg
  % Conversion: 1.1%
Type 8 Rhino
  Virus Rating: 0.2
Type 1 Herpes
  Virus Rating: 0.6-0.9
